{"source": "paper PMC5744665", "about": "(Journal of medicinal chemistry, 2015)", "key": {"[1]": {"test_system": "E.coli DH10B pBCSK- PDC-3", "assay": "MIC by agar dilution, cefotaxime alone or with boronate, strain producing PDC-3", "assay_type": "cell-based", "details": "E. coli possessing the P. aeruginosa AmpC; BATSI added to cefotaxime"}, "[2]": {"target": "PDC-3 (Pseudomonas aeruginosa, UniProt P24735, T105A)", "assay_type": "biochemical"}, "[3]": {"test_system": "E.coli DH10B", "assay": "microbe, parasite or virus in culture", "assay_type": "cell-based", "details": "Escherichia coli"}, "[4]": {"test_system": "O=C(Cc1cccs1)N[C@@H]1C(=O)N2C(C(=O)O)=C(/C=C/c3ccc([N+](=O)[O-])cc3[N+](=O)[O-])CS[C@H]12", "assay": "purified protein, by the assay type", "details": "other: substrate; used to correct Ki; pH 7.4"}}, "data": [{"compound": "O=C(Cc1cccs1)N[C@@H](Cn1cc(C(=O)O)nn1)B(O)O", "note": "[Compound 13a, (1R)-2-(4-Carboxy-[1,2,3]triazol-1-yl)-1-(2-thienylacetylamino)ethaneboronic acid]", "values": [{"measurement": "reduction in MIC of cefotaxime", "setting": "[1]", "value": "five dilution (2 log) reduction"}, {"measurement": "energetic contribution to binding of the carboxylate (ΔΔGbind)", "setting": "[2]; 13a compared with 13f, from Ki vs PDC-3, ΔΔGbind = −RTln Ki ref/Ki", "value": 2.2, "unit": "kcal/mol"}, {"measurement": "improvement in recognition caused by ring hopping (ΔΔG)", "setting": "[2]; 13a compared with Reference compound B", "value": 0.7, "unit": "kcal/mol"}]}, {"compound": "O=C(Cc1cccs1)N[C@@H](Cn1ccnn1)B(O)O", "note": "[Compound 13f, (1R)-2-([1,2,3]triazol-1-yl)-1-(2-thienylacetylamino)ethaneboronic acid]", "values": [{"measurement": "contribution of the methyltriazole to binding (ΔΔG)", "setting": "[2]; 13f compared with Ref Compound A, from Ki vs PDC-3", "value": 0.5, "unit": "kcal/mol"}]}, {"compound": "CO/N=C(\\C(=O)N[C@@H]1C(=O)N2C(C(=O)O)=C(COC(C)=O)CS[C@H]12)c1csc(N)n1", "note": "[TAX, cefotaxime]", "values": [{"measurement": "MIC", "setting": "[3]", "value": "< 0.125", "unit": "µg/mL"}]}, {"compound": "O=C(Cc1cccs1)N[C@@H]1C(=O)N2C(C(=O)O)=C(/C=C/c3ccc([N+](=O)[O-])cc3[N+](=O)[O-])CS[C@H]12", "note": "[nitrocefin, reference compound]", "values": [{"measurement": "Km", "setting": "[2]; read-out: Km of nitrocefin, PDC-3, substrate, used to correct Ki", "value": "14.6 ± 2.2", "unit": "µM"}]}, {"compound": "P99 (Enterobacter cloacae)", "values": [{"measurement": "Km", "setting": "[4]", "value": "20.03 ± 2.05", "unit": "µM"}]}]}
